32 compounds from patent US9481670B2, “Triazine compounds” (Sphaera Pharma PTE. Ltd., priority 2011, dated 2016) can be followed below.

In this test the target is T1, PI3K alpha (Homo sapiens, UniProt P42336).
T1 construct: purchased Millipore Upstate
T1 sequence (P42336 whole entry): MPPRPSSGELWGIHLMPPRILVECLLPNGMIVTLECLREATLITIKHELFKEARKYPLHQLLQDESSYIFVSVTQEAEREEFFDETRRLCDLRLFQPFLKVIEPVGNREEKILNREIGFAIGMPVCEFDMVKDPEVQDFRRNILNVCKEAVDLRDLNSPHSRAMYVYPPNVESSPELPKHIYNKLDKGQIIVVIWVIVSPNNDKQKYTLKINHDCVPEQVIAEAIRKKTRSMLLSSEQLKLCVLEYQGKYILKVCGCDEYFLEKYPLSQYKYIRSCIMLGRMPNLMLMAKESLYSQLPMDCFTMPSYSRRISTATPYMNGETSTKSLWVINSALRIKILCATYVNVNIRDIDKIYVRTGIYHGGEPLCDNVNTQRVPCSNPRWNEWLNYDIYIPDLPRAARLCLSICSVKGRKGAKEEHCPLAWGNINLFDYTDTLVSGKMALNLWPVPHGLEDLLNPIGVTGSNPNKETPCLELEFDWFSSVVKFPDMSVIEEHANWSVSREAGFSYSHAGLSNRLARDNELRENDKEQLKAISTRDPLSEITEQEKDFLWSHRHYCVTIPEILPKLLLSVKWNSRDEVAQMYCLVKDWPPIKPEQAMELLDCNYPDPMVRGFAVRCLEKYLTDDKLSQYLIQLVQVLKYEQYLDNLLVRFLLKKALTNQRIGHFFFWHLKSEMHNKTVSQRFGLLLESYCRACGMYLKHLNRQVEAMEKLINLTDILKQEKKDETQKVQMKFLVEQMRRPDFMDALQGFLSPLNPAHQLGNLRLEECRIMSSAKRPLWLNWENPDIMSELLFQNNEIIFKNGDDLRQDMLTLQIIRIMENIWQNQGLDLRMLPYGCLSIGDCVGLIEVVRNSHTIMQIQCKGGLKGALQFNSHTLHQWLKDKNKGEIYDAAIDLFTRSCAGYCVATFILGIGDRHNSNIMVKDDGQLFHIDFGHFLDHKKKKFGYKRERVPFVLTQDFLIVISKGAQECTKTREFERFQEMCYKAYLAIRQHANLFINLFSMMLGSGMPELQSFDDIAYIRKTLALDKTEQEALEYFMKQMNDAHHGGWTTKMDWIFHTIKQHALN
T1 sequence (P27986 whole entry partner): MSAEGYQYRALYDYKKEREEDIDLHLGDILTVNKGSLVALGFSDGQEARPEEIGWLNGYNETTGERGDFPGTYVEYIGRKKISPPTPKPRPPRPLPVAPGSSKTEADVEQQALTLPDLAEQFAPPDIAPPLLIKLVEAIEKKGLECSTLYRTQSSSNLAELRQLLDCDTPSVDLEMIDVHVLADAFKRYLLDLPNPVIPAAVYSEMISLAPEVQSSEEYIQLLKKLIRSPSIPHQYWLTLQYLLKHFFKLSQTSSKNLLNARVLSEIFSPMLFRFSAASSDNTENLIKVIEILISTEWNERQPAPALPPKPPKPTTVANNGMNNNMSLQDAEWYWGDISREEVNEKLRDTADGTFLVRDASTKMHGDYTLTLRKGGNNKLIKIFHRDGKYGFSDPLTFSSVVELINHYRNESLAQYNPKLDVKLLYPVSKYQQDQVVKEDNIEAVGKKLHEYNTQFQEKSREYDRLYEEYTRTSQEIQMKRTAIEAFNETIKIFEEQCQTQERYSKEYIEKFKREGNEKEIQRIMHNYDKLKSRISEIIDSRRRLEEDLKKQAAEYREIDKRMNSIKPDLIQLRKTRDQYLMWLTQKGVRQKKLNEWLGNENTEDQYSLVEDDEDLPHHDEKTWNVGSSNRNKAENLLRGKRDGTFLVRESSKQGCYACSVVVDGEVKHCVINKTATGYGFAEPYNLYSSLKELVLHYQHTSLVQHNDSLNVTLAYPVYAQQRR
Put plainly: P110 Alpha TR-FRET Assay (PI3K alpha kinase assay, HTRF Transcreener ADP Assay). It is filed as biochemical. Particulars: PI3K (WT). The gist of the method:
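HTRF Transcreener ADP read-out of ADP formed by PI3K (50 ng enzyme) in 50 mM HEPES pH 7.5, 5 mM MgCl2, 1 mM DTT, 30 μM Na3VO4. Compound preincubated with enzyme 20 min; reaction started with 10 μM ATP and 5 μM PIP2, run 20 min, then ADP-d2/anti-ADP cryptate detection for 1 h.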
In general terms: Time-resolved FRET reads energy transfer from a long-lived donor to a nearby acceptor.
With `CN(C)C(=O)c1cccc(Oc2nc(-c3cccc4[nH]ncc34)nc(N3CCOCC3)n2)c1` [Compound 1088, 3-22-{[4-1-(1H-indazol-4-yl)-6-5-(morpholin-4-yl)-1,3,5-triazin-2-yl]oxy}-N,N-dimethylbenzamide], the IC50 (commonly the concentration that gives 50% inhibition) was < 5 µM.

Take `CS(=O)(=O)N1CCN(C(=O)CNc2nc(-c3cccc(O)c3)nc(N3CCOCC3)n2)CC1` [Compound 1089, 2-((4-(3-hydroxyphenyl)-6-morpholino-1,3,5-triazin-2-yl)amino)-1-(4-(methylsulfonyl)piperazin-1-yl)ethanone]: the concentration for half-maximal inhibition (IC50) is < 5 µM. In the case of `NC(=O)C(Cc1ccccc1)Nc1nc(-c2cccc(O)c2)nc(N2CCOCC2)n1` (centres unmarked) [Compound 1090, 2-((4-(3-hydroxyphenyl)-6-morpholino-1,3,5-triazin-2-yl)amino)-3-phenylpropanamide], the IC50 was < 5 µM. `CN(C)C(=O)N1CCCC(Oc2nc(-c3cccc4[nH]ncc34)nc(N3CCOCC3)n2)C1` (centres unmarked) [Compound 1091, 3-22-{[4-1-(1H-indazol-4-yl)-6-5-(morpholin-4-yl)-1,3,5-triazin-2-yl]oxy}-N,N-dimethylpiperidine-1-carboxamide]: the concentration for half-maximal inhibition (IC50) was < 5 µM. To `NS(=O)(=O)Nc1ccc(Oc2nc(-c3cccc4[nH]ncc34)nc(N3CCOCC3)n2)cc1` [Compound 1092, N-(4-14-{[4-1-(1H-indazol-4-yl)-6-5-(morpholin-4-yl)-1,3,5-triazin-2-yl]oxy}phenyl)aminosulfonamide] belongs < 5 µM; to `CS(=O)(=O)Nc1ccc(Oc2nc(-c3cccc4[nH]ncc34)nc(N3CCOCC3)n2)cc1` [Compound 1093, N-(4-14-{[4-1-(1H-indazol-4-yl)-6-5-(morpholin-4-yl)-1,3,5-triazin-2-yl]oxy}phenyl)methanesulfonamide], < 5 µM; to `NS(=O)(=O)N[C@H]1CC[C@H](Oc2nc(-c3cccc4[nH]ncc34)nc(N3CCOCC3)n2)CC1` [Compound 1094, N-[(1r,4r)-4-9-{[4-1-(1H-indazol-4-yl)-6-5-(morpholin-4-yl)-1,3,5-triazin-2-yl]oxy}cyclohexyl]aminosulfonamide], < 5 µM. To `CS(=O)(=O)N[C@H]1CC[C@H](Oc2nc(-c3cccc4[nH]ncc34)nc(N3CCOCC3)n2)CC1` [Compound 1095, N-[(1r,4r)-4-9-{[4-1-(1H-indazol-4-yl)-6-5-(morpholin-4-yl)-1,3,5-triazin-2-yl]oxy}cyclohexyl]methanesulfonamide] belongs < 5 µM; to `CS(=O)(=O)N1CCC(COc2nc(-c3cccc4[nH]ncc34)nc(N3CCOCC3)n2)CC1` [Compound 1096, 4-(4-(1H-indazol-4-yl)-6-((1-(methylsulfonyl)piperidin-4-yl)methoxy)-1,3,5-triazin-2-yl)morpholine], < 5 µM. To `CC1COCC(C)N1c1nc(Oc2ccc(C(=O)N(C)C)cc2)nc(-c2cccc3[nH]ncc23)n1` (centres unmarked) [Compound 1097, 4-9-{[4-5-(3-28,5-32-dimethylmorpholin-4-yl)-6-1-(1H-indazol-4-yl)-1,3,5-triazin-2-yl]oxy}-N,N-dimethylbenzamide] belongs < 5 µM.

For `CC1COCCN1c1nc(Oc2ccc(C(=O)N(C)C)cc2)nc(-c2cccc3[nH]ncc23)n1` (centres unmarked) [Compound 1098, 4-9-{[4-1-(1H-indazol-4-yl)-6-5-(3-28-methylmorpholin-4-yl)-1,3,5-triazin-2-yl]oxy}-N,N-dimethylbenzamide], the IC50 is < 5 µM.

Take `CN(C)C(=O)[C@H]1C[C@H](Oc2nc(-c3cccc4[nH]ncc34)nc(N3CCOCC3)n2)CN1C` [Compound 1099, (2R,4S)-4-14-{[4-1-(1H-indazol-4-yl)-6-5-(morpholin-4-yl)-1,3,5-triazin-2-yl]oxy}-N,N,1-trimethylpyrrolidine-2-carboxamide]: the concentration for half-maximal inhibition (IC50) was < 5 µM. For the compound `CNC(=O)C(=O)Nc1ccc(Oc2nc(-c3cccc4[nH]ncc34)nc(N3CCOCC3)n2)cc1` [Compound 1100, N-(4-14-{[4-1-(1H-indazol-4-yl)-6-5-(morpholin-4-yl)-1,3,5-triazin-2-yl]oxy}phenyl)-N′-methylethanediamide], the half-maximal inhibitory concentration (IC50) is < 5 µM. To `CN(C)C(=O)C(=O)Nc1ccc(Oc2nc(-c3cccc4[nH]ncc34)nc(N3CCOCC3)n2)cc1` [Compound 1101, N-(4-14-{[4-1-(1H-indazol-4-yl)-6-5-(morpholin-4-yl)-1,3,5-triazin-2-yl]oxy}phenyl)-N′,N′-dimethylethanediamide] belongs < 5 µM; to `CS(=O)(=O)N1CCC(Oc2nc(-c3cccc4[nH]ncc34)nc(N3CCOCC3)n2)CC1` [Compound 1102, 4-7-{4-3-[(1-25-methanesulfonylpiperidin-4-yl)oxy]-6-5-(morpholin-4-yl)-1,3,5-triazin-2-yl}-1H-indazole], < 5 µM; to `CN(C)C(=O)[C@H]1C[C@H](Oc2nc(-c3cccc4[nH]ncc34)nc(N3CCOCC3)n2)CN1` [Compound 1103, (2R,4S)-4-14-{[4-1-(1H-indazol-4-yl)-6-5-(morpholin-4-yl)-1,3,5-triazin-2-yl]oxy}-N,N-dimethylpyrrolidine-2-carboxamide], < 5 µM. The value for `CN(C)C(=O)CCNc1nc(-c2ccc(N)nc2)nc(N2CCOCC2)n1` [Compound 1104, 3-((4-(6-aminopyridin-3-yl)-6-morpholino-1,3,5-triazin-2-yl)amino)-N,N-dimethylpropanamide] was < 5 µM; that for `Oc1ccc(-c2nc(N3CCNCC3)nc(N3CCOCC3)n2)cn1` [Compound 1105, 5-12-[4-5-(morpholin-4-yl)-6-3-(piperazin-1-yl)-1,3,5-triazin-2-yl]pyridin-2-ol] was < 5 µM.

Take `CN(C)C(=O)Nc1ccc(Oc2nc(-c3cccc4[nH]ncc34)nc(N3CCOCC3)n2)cc1` [Compound 1106, 1-(4-14-{[4-1-(1H-indazol-4-yl)-6-5-(morpholin-4-yl)-1,3,5-triazin-2-yl]oxy}phenyl)-3,3-dimethylurea]: the half-inhibitory concentration (IC50) is < 5 µM. The value for `CC(C)C(=O)Nc1ccc(Oc2nc(-c3cccc4[nH]ncc34)nc(N3CCOCC3)n2)cc1` [Compound 1107, N-(4-14-{[4-1-(1H-indazol-4-yl)-6-5-(morpholin-4-yl)-1,3,5-triazin-2-yl]oxy}phenyl)-2-30-methylpropanamide] was < 5 µM; that for `CN(C)C(=O)N1CCC(Oc2nc(-c3cccc4[nH]ncc34)nc(N3CCOCC3)n2)C1` (centres unmarked) [Compound 1108, 3-14-{[4-1-(1H-indazol-4-yl)-6-5-(morpholin-4-yl)-1,3,5-triazin-2-yl]oxy}-N,N-dimethylpyrrolidine-1-carboxamide] was < 5 µM; that for `CN(C)C(=O)N1CCC(COc2nc(-c3cccc4[nH]ncc34)nc(N3CCOCC3)n2)C1` (centres unmarked) [Compound 1109, 3-22-({[4-1-(1H-indazol-4-yl)-6-5-(morpholin-4-yl)-1,3,5-triazin-2-yl]oxy}methyl)-N,N-dimethylpyrrolidine-1-carboxamide] was < 5 µM.

On to `CN(C)C(=O)c1ccc(COc2nc(-c3cccc4[nH]ncc34)nc(N3CCOCC3)n2)cc1` [Compound 1110, 4-23-({[4-1-(1H-indazol-4-yl)-6-5-(morpholin-4-yl)-1,3,5-triazin-2-yl]oxy}methyl)-N,N-dimethylbenzamide], for which the IC50 is < 5 µM. The value for `CN(C)C(=O)c1cccc(Nc2nc(-c3cccc4[nH]ncc34)nc(N3CCNC(=O)C3)n2)c1` [Compound 1111, 3-((4-(1H-indazol-4-yl)-6-(3-oxopiperazin-1-yl)-1,3,5-triazin-2-yl)amino)-N,N-dimethylbenzamide] was > 5 µM; that for `CN(C)C(=O)c1ccc(Oc2nc(-c3cccc4[nH]ncc34)nc(N3CCOCC3)n2)cc1` [Compound 1114, 4-14-{[4-1-(1H-indazol-4-yl)-6-5-(morpholin-4-yl)-1,3,5-triazin-2-yl]oxy}-N,N-dimethylbenzamide] was < 5 µM; that for `c1ccc(CN2CCC(Oc3nc(-c4cccc5[nH]ncc45)nc(N4CCOCC4)n3)CC2)cc1` [Compound 1115, 4-(4-((1-benzylpiperidin-4-yl)oxy)-6-(1H-indazol-4-yl)-1,3,5-triazin-2-yl)morpholine] was < 5 µM. The value for `CC(C)(C)OC(=O)N1CCC(NC(=O)c2cccc(Nc3nc(-c4cccc5[nH]ncc45)nc(N4CCOCC4)n3)c2)CC1` [Compound 1116, tert-butyl 4-(3-((4-(1H-indazol-4-yl)-6-morpholino-1,3,5-triazin-2-yl)amino)benzamido)piperidine-1-carboxylate] was < 5 µM.

As to `O=C1CCN(C(=O)c2cccc(Nc3nc(-c4cccc5[nH]ncc45)nc(N4CCOCC4)n3)c2)CCN1` [Compound 1117, 1-(3-((4-(1H-indazol-4-yl)-6-morpholino-1,3,5-triazin-2-yl)amino)benzoyl)-1,4-diazepan-5-one], the IC50 was < 5 µM. The value for `O=C(O)C(Cc1ccccc1)Nc1nc(-c2cccc(O)c2)nc(N2CCOCC2)n1` (centres unmarked) [Compound 1118, 2-((4-(3-hydroxyphenyl)-6-morpholino-1,3,5-triazin-2-yl)amino)-3-phenylpropanoic acid] was < 5 µM; that for `CN(C)Cc1ccc(Oc2nc(-c3cccc4[nH]ncc34)nc(N3CCOCC3)n2)cc1` [Compound 1119, 1-(4-((4-(1H-indazol-4-yl)-6-morpholino-1,3,5-triazin-2-yl)oxy)phenyl)-N,N-dimethylmethanamine] was < 5 µM. To `CS(=O)(=O)N1CCN(C(=O)CNc2nc(-c3ccc(N)cc3)nc(N3CCOCC3)n2)CC1` [Compound 1120, 2-((4-(4-aminophenyl)-6-morpholino-1,3,5-triazin-2-yl)amino)-1-(4-(methylsulfonyl)piperazin-1-yl)ethanone] belongs > 5 µM. To `CC(=O)Nc1cccc(-c2nc(N3CCOCC3)nc(N(CC(=O)O)C(C)=O)n2)c1` [Compound 1121, 2-9-{N-[4-1-(3-14-acetamidophenyl)-6-5-(morpholin-4-yl)-1,3,5-triazin-2-yl]acetamido}acetic acid] belongs > 5 µM.
